Reference: US20140364431A1, “Quinoline and cinnoline derivatives and their applications” (Shenyang Pharmaceutical University, priority 2011, published 2014)
Values after ≈ are worked out from the molar mass of the structure shown. Where a name gives a salt, the structure may show the parent alone.

What was measured:
[1] = test system: HT-29 (colon cancer cell); experiment: In vitro anti-tumor cellular activity (MTT), HT-29; assay type: cell-based, human; details: for IC50: Homo sapiens, HT-29, 72 h, read-out: HT-29 IC50
[2] = test system: MKN-45 (human gastric carcinoma cell); experiment: In vitro anti-tumor cellular activity (MTT), MKN-45; assay type: cell-based; details: for IC50: Homo sapiens, MKN-45, 72 h, read-out: MKN-45 IC50
[3] = test system: U87MG (Human malignant glioblastoma cells); experiment: In vitro anti-tumor cellular activity (MTT), U87MG; assay type: cell-based; details: for IC50: Homo sapiens, U-87 MG, 72 h, read-out: U87MG IC50
[4] = test system: SMMC-7721 (hepatoma cell); experiment: In vitro anti-tumor cellular activity (MTT), SMMC-7721; assay type: cell-based, human; details: for IC50: Homo sapiens, SMMC-7721, 72 h, read-out: SMMC-7721 IC50
[5] = test system: H460 (human lung cancer cell); experiment: In vitro anti-tumor cellular activity (MTT), H460; assay type: cell-based; details: for IC50: Homo sapiens, NCI-H460, 72 h, read-out: H460 IC50

| SMILES | HT-29 IC50 ([1]; MTT, 72 hours, HT-29) [µg/mL] | MKN-45 IC50 ([2]; MTT, 72 hours, MKN-45) [µg/mL] | U87MG IC50 ([3]; MTT, 72 hours, U87MG) [µg/mL] | SMMC-7721 IC50 ([4]; MTT, 72 hours, SMMC-7721) [µg/mL] | H460 IC50 ([5]; MTT, 72 hours, H460) [µg/mL] | IC50 [1] [µg/mL] | IC50 [2] [µg/mL] | IC50 [3] [µg/mL] | IC50 [4] [µg/mL] | IC50 [5] [µg/mL] |
| --- | --- | --- | --- | --- | --- | --- | --- | --- | --- | --- |
| N.N.[Cl][Pt][Cl] [Cisplatin, reference compound] | 1 | 0.68 | 0.19 | 0.9 | 0.23 |  |  |  |  |  |
| COc1cc2c(Oc3ccc(NC(=O)c4nn(-c5ccc(Br)cc5)c5ccccc5c4=O)cc3F)ccnc2cc1OCCCN1CCCCC1.Cl.Cl [Example 3, N-(3-fluoro-4-((6-methoxy-7-(3-(piperidin-1-yl)propoxy)quinolin-4-yl)oxy)phenyl)-1-(4-bromophenyl)-4-oxo-1,4-dihydrocinnoline-3-carboxamide dihydrochloride] |  |  |  |  |  | 0.86 | 0.34 | 1.2 | 0.63 | 0.3 |
| COc1cc2c(Oc3ccc(NC(=O)c4nn(-c5ccccc5C(F)(F)F)c5ccccc5c4=O)cc3F)ccnc2cc1OCCCN1CCOCC1 [Example 4, N-(3-fluoro-4-((6-methoxy-7-(3-(morpholin-4-ylpropoxy)quinolin-4-yl)oxy)phenyl)-1-(2-(trifluoromethyl)phenyl)-4-oxo-1,4-dihydrocinnoline-3-carboxamidedihydrochloride] |  |  |  |  |  | 1.2 | 2 | 0.8 | 0.9 | 1 |
| COc1cc2c(Oc3ccc(NC(=O)c4nn(-c5cccc(C(F)(F)F)c5)c5ccccc5c4=O)cc3F)ccnc2cc1OCCCN1CCCCC1 [Example 6, N-(3-fluoro-4-((6-methoxy-7-(3-(piperidin-1-yl)propoxy)quinolin-4-yl)oxy)phenyl)-1-(3-(trifluoromethyl)phenyl)-4-oxo-1,4-dihydrocinnoline-3-carboxamide] |  |  |  |  |  | 0.63 (≈ 0.849 µM) | 0.1 (≈ 0.135 µM) | 1.4 (≈ 1.89 µM) | 1.3 (≈ 1.75 µM) | 1.7 (≈ 2.29 µM) |
| COc1cc2c(Oc3ccc(NC(=O)c4nn(-c5cccc(F)c5)c5ccccc5c4=O)cc3F)ccnc2cc1OCCCN1CCCCC1 [Example 9, N-(3-fluoro-4-((6-methoxy-7-(3-(piperidin-1-yl)propoxy)quinolin-4-yl)oxy)phenyl)-1-(3-fluorophenyl)-4-oxo-1,4-dihydrocinnoline-3-carboxamide] |  |  |  |  |  | 0.17 (≈ 0.246 µM) | 0.0075 (≈ 0.0108 µM) | 1.2 (≈ 1.73 µM) | 0.65 (≈ 0.94 µM) | 0.007 (≈ 0.0101 µM) |
| COc1cc2c(Oc3ccc(NC(=O)c4nn(-c5ccc(Cl)cc5)c5ccccc5c4=O)cc3F)ccnc2cc1OCCCN1CCCCC1 [Example 10, N-(3-fluoro-4-((6-methoxy-7-(3-(piperidin-1-yl)propoxy)quinolin-4-yl)oxy)phenyl)-1-(4-chlorophenyl)-4-oxo-1,4-dihydrocinnoline-3-carboxamide] |  |  |  |  |  | 0.42 (≈ 0.593 µM) | 0.087 (≈ 0.123 µM) | 0.86 (≈ 1.21 µM) | 1 (≈ 1.41 µM) | 0.06 (≈ 0.0847 µM) |
| COc1cc2c(Oc3ccc(NC(=O)c4nn(-c5ccc(F)cc5Br)c5ccccc5c4=O)cc3F)ccnc2cc1OCCCN1CCCC1 [Example 18, N-(3-fluoro-4-((6-methoxy-7-(3-(pyrrolidin-1-yl)propoxy)quinolin-4-yl)oxy)phenyl)-1-(2-bromo-4-fluorophenyl)-4-oxo-1,4-dihydrocinnoline-3-carboxamide] |  |  |  |  |  | 0.9 (≈ 1.19 µM) | 1.5 (≈ 1.98 µM) | 0.8 (≈ 1.06 µM) | 2.1 (≈ 2.78 µM) | 1.3 (≈ 1.72 µM) |
| COc1cc2c(Oc3ccc(NC(=O)c4nn(-c5cc(C(F)(F)F)ccc5Cl)c5ccccc5c4=O)cc3F)ccnc2cc1OCCCN1CCCC1 [Example 22, N-(3-fluoro-4-((6-methoxy-7-(3-(pyrrolidin-1-yl)propoxy)quinolin-4-yl)oxy)phenyl)-1-(2-chloro-5-(trifluoromethyl)phenyl)-4-oxo-1,4-dihydrocinnoline-3-carboxamide] |  |  |  |  |  | 0.81 (≈ 1.06 µM) | 0.28 (≈ 0.367 µM) | 0.96 (≈ 1.26 µM) | 0.54 (≈ 0.709 µM) | 0.54 (≈ 0.709 µM) |
| COc1cc2c(Oc3ccc(NC(=O)c4nn(-c5ccc(C)cc5C)c5ccccc5c4=O)cc3F)ccnc2cc1OCCCN1CCCC1 [Example 25, N-(3-fluoro-4-((6-methoxy-7-(3-(pyrrolidin-1-yl)propoxy)quinolin-4-yl)oxy)phenyl)-1-(2,4-dimethylphenyl)-4-oxo-1,4-dihydrocinnoline-3-carboxamide] |  |  |  |  |  | 1.1 (≈ 1.6 µM) | 1.5 (≈ 2.18 µM) | 2.9 (≈ 4.22 µM) | 0.76 (≈ 1.11 µM) | 0.89 (≈ 1.29 µM) |
| COc1cc2c(Oc3ccc(NC(=O)c4nn(-c5ccc(Cl)cc5Cl)c5ccccc5c4=O)cc3F)ccnc2cc1OCCCN1CCCCC1 [Example 27, N-(3-fluoro-4-((6-methoxy-7-(3-(piperidin-1-yl)propoxy)quinolin-4-yl)oxy)phenyl)-1-(2,4-dichlorophenyl)-4-oxo-1,4-dihydrocinnoline-3-carboxamide] |  |  |  |  |  | 1.8 (≈ 2.42 µM) | 2.1 (≈ 2.83 µM) | 0.6 (≈ 0.808 µM) | 0.9 (≈ 1.21 µM) | 1.5 (≈ 2.02 µM) |
| COc1cc2c(Oc3ccc(NC(=O)c4nn(-c5c(Cl)cccc5Cl)c5ccccc5c4=O)cc3F)ccnc2cc1OCCCN1CCCCC1 [Example 29, N-(3-fluoro-4-((6-methoxy-7-(3-(piperidin-1-yl)propoxy)quinolin-4-yl)oxy)phenyl)-1-(2,6-dichlorophenyl)-4-oxo-1,4-dihydrocinnoline-3-carboxamide] |  |  |  |  |  | 0.44 (≈ 0.592 µM) | 0.67 (≈ 0.902 µM) | 0.74 (≈ 0.996 µM) | 1.2 (≈ 1.62 µM) | 0.77 (≈ 1.04 µM) |
| COc1cc2c(Oc3ccc(NC(=O)c4nn(-c5c(Cl)cccc5Cl)c5ccccc5c4=O)cc3F)ccnc2cc1OCCCN1CCC(C)CC1 [Example 30, N-(3-fluoro-4-((6-methoxy-7-(3-(4-methylpiperidin-1-yl)propoxy)quinolin-4-yl)oxy)phenyl)-1-(2,6-dichlorophenyl)-4-oxo-1,4-dihydrocinnoline-3-carboxamide] |  |  |  |  |  | 0.49 (≈ 0.648 µM) | 0.5 (≈ 0.661 µM) | 0.27 (≈ 0.357 µM) | 0.1 (≈ 0.132 µM) | 0.7 (≈ 0.925 µM) |
| COc1cc2c(Oc3ccc(NC(=O)c4nn(-c5c(Cl)cccc5Cl)c5ccccc5c4=O)cc3F)ccnc2cc1OCCCN1CCCC1 [Example 31, N-(3-fluoro-4-((6-methoxy-7-(3-(pyrrolidin-1-yl)propoxy)quinolin-4-yl)oxy)phenyl)-1-(2,6-dichlorophenyl)-4-oxo-1,4-dihydrocinnoline-3-carboxamide] |  |  |  |  |  | 0.27 (≈ 0.371 µM) | 0.18 (≈ 0.247 µM) | 0.26 (≈ 0.357 µM) | 0.33 (≈ 0.453 µM) | 0.77 (≈ 1.06 µM) |
| COc1cc2c(Oc3ccc(NC(=O)c4nn(-c5ccccc5Cl)c5ccccc5c4=O)cc3F)ccnc2cc1OCCCN1CCOCC1 [Example 33, N-(3-fluoro-4-((6-methoxy-7-(3-(morpholin-4-yl)propoxy)quinolin-4-yl)oxy)phenyl)-1-(2-chlorophenyl)-4-oxo-1,4-dihydrocinnoline-3-carboxamide] |  |  |  |  |  | 0.9 (≈ 1.27 µM) |  | 1.4 (≈ 1.97 µM) | 1.6 (≈ 2.25 µM) | 2.2 (≈ 3.1 µM) |
| COc1cc2c(Oc3ccc(NC(=O)c4nn(-c5ccccc5Br)c5ccccc5c4=O)cc3F)ccnc2cc1OCCCN1CCOCC1 [Example 34, N-(3-fluoro-4-((6-methoxy-7-(3-(morpholin-4-yl)propoxy)quinolin-4-yl)oxy)phenyl)-1-(2-bromophenyl)-4-oxo-1,4-dihydrocinnoline-3-carboxamide] |  |  |  |  |  | 0.43 (≈ 0.57 µM) | 1.3 (≈ 1.72 µM) | 0.65 (≈ 0.861 µM) | 1.5 (≈ 1.99 µM) | 0.7 (≈ 0.928 µM) |
